The values that follow come from paper PMC5065130, “Functional Trade-Offs in Promiscuous Enzymes Cannot Be Explained by Intrinsic Mutational Robustness of the Native Activity” (PLoS Genetics, 2016).

The test concerns the target T1, wtPTE (Brevundimonas diminuta, UniProt P0A434).
T1 construct: gene opd; synthetic gene in pET-Strep vector, expressed in E. coli BL21 (DE3) with GroEL/ES, ZnCl2 in medium; clarified lysate
The experiment in a line: absorbance at […] nm, p-nitrophenolate release, initial rate in clarified lysate. Format: biochemical. The following applies: 180 uM substrate; Tris-HCl pH 7.5 lysis buffer, 0.1% Triton X-100; native activity.

For the molecule `CCOP(=O)(OCC)Oc1ccc([N+](=O)[O-])cc1` [paraoxon], the “absorbance at 405 nm, p-nitrophenolate release, initial rate in clarified lysate” value is reported as “wtPTE catalyzes the hydrolysis of paraoxon (PTE activity)”.
